# Experimental data from patent publication US8647657B2, “Polymeric devices for controlled release of active agents” (Durect Corporation, priority 2003, dated 2014).
# How the values were obtained:
# FSH = assay: Blood level of FSH after time-released leuprolide acetate device; assay type: in vivo, human
# Experimental: (§1) For example, a 30 mg time-released dose of leuprolide acetate can be administered to an adult subject. The leuprolide acetate active agent is provided in a biodegradable polymer system to supply a polymeric device for controlled release of the active agent. […] The leuprolide acetate active agent is incorporated within the polymer system such that the polymer system provides for controlled release of the agent from the device. When the device is administered to the subject, for example, when it is implanted, the device releases the active agent in a controlled fashion without a lag period, or with a minimal lag period. In this manner, the leuprolide can be gradually released over a period of several months. After a period of two weeks, the subject's blood level of LH may be undetectable and the subject's blood level of FSH may be approximately 5 mIU/mL.
# (§2) In another example, a dose of 1.88 mg time-released dose of leuprolide acetate can be administered to a subject. The leuprolide acetate active agent is provided in a biodegradable polymer system to supply a polymeric device for controlled release of the active agent. […] The leuprolide acetate active agent is incorporated within the polymer system such that the polymer system provides for controlled release of the agent from the device. […]
# LH = assay: Blood level of LH after time-released leuprolide acetate device; assay type: in vivo, human
# Experimental: as §1, §2
# [1] = 1.88 mg time-released dose in polymeric device, released over approximately one month
# [2] = 30 mg time-released dose in polymeric device, adult subject, after two weeks
structure (smiles),measurement,setting,value
CCNC(=O)[C@@H]1CCCN1C(=O)[C@H](CCCNC(=N)N)NC(=O)[C@H](CC(C)C)NC(=O)[C@@H](CC(C)C)NC(=O)[C@H](Cc1ccc(O)cc1)NC(=O)[C@H](CO)NC(=O)[C@H](Cc1c[nH]c2ccccc12)NC(=O)[C@H](Cc1c[nH]cn1)NC(=O)[C@@H]1CCC(=O)N1 [leuprolide acetate],FSH blood levels,FSH; [1],undetectable levels
same,blood level of FSH,FSH; [2],approximately 5 mIU/mL
same,LH blood levels,LH; [1],undetectable levels
same,blood level of LH,LH; [2],undetectable
